Consider twelve compounds from patent US7812162B2, “Enantiomers of 2′-fluoralkyl-6-nitroquipazine as serotonin transporter positron emission tomography imaging agents and antidepressant therapeutics” (The University of Montana, priority 2006, dated 2010).

Each structure is given as a SMILES string.

The term Ki denotes the dissociation constant of the complex between target and ligand, obtained from inhibition or displacement.

T1 sequence (P31652 whole entry): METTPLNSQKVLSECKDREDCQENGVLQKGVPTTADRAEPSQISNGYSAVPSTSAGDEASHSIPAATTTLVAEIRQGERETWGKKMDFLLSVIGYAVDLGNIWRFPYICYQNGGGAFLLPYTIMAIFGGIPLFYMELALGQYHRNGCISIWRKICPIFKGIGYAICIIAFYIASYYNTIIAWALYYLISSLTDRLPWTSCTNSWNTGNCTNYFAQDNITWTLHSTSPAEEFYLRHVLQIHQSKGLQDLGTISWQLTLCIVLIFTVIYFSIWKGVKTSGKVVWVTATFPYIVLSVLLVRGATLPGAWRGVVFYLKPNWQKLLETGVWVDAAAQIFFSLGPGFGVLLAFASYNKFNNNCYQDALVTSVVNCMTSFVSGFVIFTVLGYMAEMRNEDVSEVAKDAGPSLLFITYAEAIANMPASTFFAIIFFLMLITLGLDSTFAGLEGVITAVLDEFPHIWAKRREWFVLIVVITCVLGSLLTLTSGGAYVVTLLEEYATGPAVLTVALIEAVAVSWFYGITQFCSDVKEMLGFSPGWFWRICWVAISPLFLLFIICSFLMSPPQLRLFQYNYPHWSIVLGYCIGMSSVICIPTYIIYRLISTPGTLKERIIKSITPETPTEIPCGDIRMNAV

The first experiment concerns the target T1, rat frontal cortical SERT, rSERT (Rattus norvegicus, UniProt P31652).
T1 construct: rat frontal cortical SERT, rSERT; from tissue; host or cells: rat frontal cortex
The experiment is described as follows: Competition binding assay, rat frontal cortical SERT, [3H]Paroxetine. The settings on record: Competitive binding, rat brain cortex homogenate, 20° C., n = 3, mean±s.e.m. Here is the method:
The compounds of the invention are potent (sub-nanomolar concentration) pharmacological inhibitor binding ligands of the serotonin transporter. Examples of the in vitro inhibition competitive pharmacological binding SERT potencies are shown in Table 3, where the binding constant Ki values are reported as mean±s.e.m., n=3 or greater. The binding constants were determined using an established competition assay (rat frontal cortical SERT, rSERT; [^3H]Paroxetine, 3 h incubation time at 20° C., nonspecific binding determined as the difference in the absence and presence of saturating levels of non-radioactive 6-nitroquipazine) [Gerdes 2000] which is a modified method of Habert [Habert 1985]. […] The ligands of the invention are considered to have antidepressant qualities since they effectively compete with the radiolabelled form of the known antidepressant Paroxetine ([^3H]Paroxetine) at the serotonin transporter [Tatsumi 1997, Hyttel 1994].
On to `O=[N+]([O-])c1ccc2nc(N3CCNCC3COCCCF)ccc2c1` (racemic) [Cpd 2, 2-[2-((3-Fluoropropoxy)methyl)piperazine-1-yl]-6-nitroquinoline], for which the inhibition constant Ki stood at 0.28 ± 0.09 nM.

With `COCC1CNCCN1c1ccc2cc([N+](=O)[O-])ccc2n1` (racemic) [Cpd 13], the inhibitory constant (Ki) turned out to be 0.42 ± 0.01 nM.

Take `O=[N+]([O-])c1ccc2nc(N3CCNCC3CO)ccc2c1` (racemic) [Cpd 14]: the Ki came to 0.68 ± 0.04 nM.

The compound `O=[N+]([O-])c1ccc2nc(N3CCNC[C@@H]3COCCCF)ccc2c1` [Cpd 2R] gave a Ki of 0.25 ± 0.08 nM.

As to `O=[N+]([O-])c1ccc2nc(N3CCNC[C@H]3COCCCF)ccc2c1` [Cpd 2S], the Ki came out at 1.56 ± 0.88 nM.

In turn, `COC[C@H]1CNCCN1c1ccc2cc([N+](=O)[O-])ccc2n1` [Cpd 13R] returned a Ki of 0.25 ± 0.03 nM.

Consider `COC[C@@H]1CNCCN1c1ccc2cc([N+](=O)[O-])ccc2n1` [Cpd 13S, (S)-(−)-2-[2-(Methoxymethyl)piperazin-1-yl]-6-nitroquinolin], for which affinity was put at a Ki of 1.52 ± 0.1 nM.

The target of a further experiment is T2, human serotonin transporter (hSERT) (Homo sapiens, UniProt P31645).
T2 construct: expressed in transfected cells; host or cells: HEK-293
T2 sequence (P31645 whole entry): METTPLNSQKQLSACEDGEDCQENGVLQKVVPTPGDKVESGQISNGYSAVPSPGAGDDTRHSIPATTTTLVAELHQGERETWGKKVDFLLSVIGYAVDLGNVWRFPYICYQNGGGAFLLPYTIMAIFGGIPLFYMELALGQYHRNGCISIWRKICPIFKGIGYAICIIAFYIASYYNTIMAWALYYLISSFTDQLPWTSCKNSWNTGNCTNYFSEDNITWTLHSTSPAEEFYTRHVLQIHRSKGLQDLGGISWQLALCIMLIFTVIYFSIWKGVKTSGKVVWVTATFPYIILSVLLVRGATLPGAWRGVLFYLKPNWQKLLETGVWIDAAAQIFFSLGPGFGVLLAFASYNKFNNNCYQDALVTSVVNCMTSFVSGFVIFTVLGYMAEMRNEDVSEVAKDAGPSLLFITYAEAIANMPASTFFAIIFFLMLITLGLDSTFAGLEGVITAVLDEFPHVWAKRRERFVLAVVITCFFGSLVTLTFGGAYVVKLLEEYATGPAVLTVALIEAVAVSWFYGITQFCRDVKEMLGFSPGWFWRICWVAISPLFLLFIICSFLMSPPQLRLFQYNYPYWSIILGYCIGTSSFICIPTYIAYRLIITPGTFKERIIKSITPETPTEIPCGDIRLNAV
Briefly: Inhibition of [3H]5-HT uptake into HEK-293 cells transfected with hSERT. It is filed as cell-based. The settings on record: hSERT HEK-293 cells, 20° C.
`COCC1CNCCN1c1ccc2cc([N+](=O)[O-])ccc2n1` (racemic) [Cpd 13]: the inhibitory constant (Ki) came out at 0.47 nM.

With `COC[C@H]1CNCCN1c1ccc2cc([N+](=O)[O-])ccc2n1` [Cpd 13R], the Ki amounted to 0.15 nM.

The compound `COC[C@@H]1CNCCN1c1ccc2cc([N+](=O)[O-])ccc2n1` [Cpd 13S, (S)-(−)-2-[2-(Methoxymethyl)piperazin-1-yl]-6-nitroquinolin] showed an inhibition constant (Ki) of 1.66 nM.

The target in a further experiment is T3, SERT (Rattus norvegicus, UniProt P31652).
T3 sequence (P31652 whole entry): as the sequence (P31652 whole entry) above
Test: not given
Conditions: Rat brain, [3H]paroxetine; SERT competitive binding; cited from earlier work.
`O=[N+]([O-])c1ccc2nc(N3CCNCC3)ccc2c1` [Cpd 5]: the inhibitory constant (Ki) is 0.16 nM.

For `O=[N+]([O-])c1ccc2nc(N3CCNCC3)ccc2c1I` [Cpd 6], the inhibition constant Ki is 0.17 nM.

As to `O=[N+]([O-])c1ccc2nc(N3CCNCC3)ccc2c1F` [Cpd 8], the Ki is 0.25 nM.

Turning to `CC1CNCCN1c1ccc2cc([N+](=O)[O-])ccc2n1` (stereo not drawn) [Cpd 12], the inhibition constant Ki was 0.08 nM.

A further experiment has as its target T3, SERT.
Test: not given
The settings on record: Rat brain, [3H]citalopram; SERT competitive binding; cited from earlier work.
In the case of `O=[N+]([O-])c1ccc2nc(N3CCNCC3)c(CCCF)cc2c1` [Cpd 10], the inhibition constant (Ki) is 0.31 nM.
